Experimental data reported in ChEMBL document CHEMBL3045801, “Synthesis of 1, 2, 4-Triazolo[1, 5-a]-1, 3, 5-triazine Derivatives for Phytotoxic Activity” (J Pestic Sci, 1995).

Experiments:
[1] = test system: Scenedesmus acutus; test: Phytotoxicity against Scenedesmus acutus assessed as inhibition of chlorophyll content after 16 hr by spectrophotometry relative to untreated control; assay type: functional
[2] = test system: Scenedesmus acutus; test: Growth inhibition of Scenedesmus acutus assessed as packed cell volume per ml of algal culture volume after 16 hr (reference value: 3.8 ul pcv/ml); assay type: functional

SMILES	inhibition (INH) [1]	Activity [2]
Nc1ncnc2nc(-c3ccc(Cl)cc3F)nn12	32.61%	3.1 uL/ml
COc1ccc(/C=N/N/C(N)=N/C=N/C#N)cc1	28.77%	3 uL/ml
NC1=NC=NC2=NC(c3ccc(Cl)cc3)NN12 (stereo not given)	4.81%	3.6 uL/ml
CN/C(=N\C=N\C#N)N/N=C(\C)c1ccccc1	6.92%	3.8 uL/ml
C/C(=N\N/C(N)=N/C=N/C#N)c1ccc(Cl)cc1	37.18%	3.4 uL/ml
Nc1ncnc2nc(-c3ccc(Cl)cc3)nn12	25.55%	3.2 uL/ml
CNc1ncnc2nc(-c3ccc(Cl)cc3)nn12	8.07%	3.7 uL/ml
N#C/N=C/N=C(\N)N/N=C/c1ccc(Cl)cc1F	41.65%	3 uL/ml
CCOc1cc(Oc2ccc(C(F)(F)F)cc2Cl)ccc1[N+](=O)[O-] [OXYFLUORFEN]	2.24%	1.4 uL/ml
NC1=NC=NC2=NC(c3ccc(Cl)cc3F)NN12 (stereo not given)	10.39%	3.4 uL/ml
O=C1C2=C(CCCC2)C(=O)N1c1ccc(Cl)cc1 [CHLOROPHTHALIUM]	2.34%	2.5 uL/ml
N#C/N=C/N=C(\N)N/N=C/c1ccc(Cl)cc1	29.21%	3.1 uL/ml
O=C1C2=C(CCCC2)C(=O)N1c1ccc(Br)cc1F	79%	2.1 uL/ml
CN/C(=N\C=N\C#N)N/N=C/c1ccccc1	32.97%	3.3 uL/ml
CCN/C(=N\C=N\C#N)N/N=C(\C)c1ccccc1	27.93%	3.6 uL/ml
